From PubChem BioAssay AID1850 (Southern Research Specialized Biocontainment Screening …, 2009) come the findings set out here.

pIC50: −log10 of the molar value. Several values for one entry are separate records, joined by “and”; a condition that tells them apart may be missing. Identical values can stand only once.

One may read the pIC50 as −log10 of the IC50, conventionally taken in molar units.

This experiment concerns Salmonella Typhi PhoP-promoter GFP reporter, fluorescence, 4 h. Nature of the experiment: PhoP regulon inhibitors, Salmonella typhi PhoP promoter GFP reporter, confirmatory (AID 1850).

As to `CN(C)CCOCCOc1ccc(Cl)c2ccccc12`, the pIC50 was 3.99.

Consider `Cc1ccc2c(c1)c1c(n2CC(O)CN2CCC(C)CC2)CCCC1` (configuration not stated), for which the pIC50 is 4.11.

With `CCN1CCN(C(=O)c2cc3cc(F)ccc3[nH]2)CC1`, the pIC50 is 3.99.

Turning to `CCOC(=O)N/N=C\c1ccc([N+](=O)[O-])o1`, the pIC50 was 4.48.

As for `CCCCCCCCCCCCCCCCn1cc[n+](C)c1`, the pIC50 is 4.51.

As for `CN(C)CCCN1c2ccccc2Sc2ccc(Cl)cc21`, the pIC50 is 4.16 and 4.41.

In the case of `Cc1c(CN(C)C)c2c(n1Cc1ccccc1)C(=O)c1ccc(Br)cc1-2`, the pIC50 was 4.12.

As for `Cc1cc(C)n(/N=C/c2cc([N+](=O)[O-])ccc2O)c(=O)c1`, the pIC50 was 4.04.

As for `CNCCCC1c2ccccc2C=Cc2ccccc21`, the negative logarithm of the IC50 (pIC50) was 3.87.

Take `O=C(N[C@H](CO)[C@H](O)c1ccc([N+](=O)[O-])cc1)C(Cl)Cl`: the pIC50 is 5.31.

Regarding `c1ccc2c(c1)OC(CCCN1CCCCC1)c1ccccc1S2` (configuration not stated), the pIC50 is 4.02.

For `Cc1cc(C)c2nc(C)cc(N/N=C/c3ccc(O)cc3)c2c1`, the negative logarithm of the IC50 (pIC50) is 4.44.

With `O=C(N/N=C/c1cc(Cl)cc([N+](=O)[O-])c1O)C1CC1`, the pIC50 is 3.97.

For the compound `COc1cc(Br)cc(/C=N/c2ncn[nH]2)c1O`, the pIC50 was 4.01.

Take `CCCCCSc1cc(OC)c(CCNC)cc1OC`: the pIC50 was 4.05.

`CN(Cc1ccccc1O)CC1CCCN(CCc2ccc(Cl)cc2)C1` (configuration not stated): the pIC50 is 4.01.

In the case of `CCc1cccc2c(C(=O)COC(=O)c3ccc([N+](=O)[O-])s3)c[nH]c12`, the pIC50 is 4.73.

For `Nc1nc2ccccc2n1CCOc1ccccc1Cl`, the pIC50 was 4.13.

Turning to `CCn1cc(C(=O)O)c(=O)c2cc(F)c(N3CCNCC3)cc21`, the pIC50 was 6.57.

Consider `COc1cc(C)c(Cc2cnc(N)nc2N)cc1OC`, for which the pIC50 was 5.54.

Turning to `CN1CCc2nc(SCC(=O)Nc3cccc(F)c3)c(C#N)c(-c3cccs3)c2C1`, the pIC50 is 4.06.

Consider `CNC(CC(=O)c1ccc([N+](=O)[O-])cc1)C(Cl)(Cl)Cl` (configuration not stated), for which the pIC50 is 4.02.

Consider `CC(C)(C)c1ccc(NC(=O)COC(=O)c2ccc([N+](=O)[O-])s2)cc1`, for which the pIC50 is 4.66.

For the compound `OC(CNCCc1ccc(C(F)(F)F)cc1)COC(c1ccccc1)c1ccccc1` (configuration not stated), the pIC50 is 4.59.

`CC(C(=O)NC1CCS(=O)(=O)C1)N1C(=O)/C(=C/c2ccc(Cl)cc2)SC1=S` (configuration not stated): the pIC50 was 4.65.

As for `C1=C(CCNCc2ccccc2)CCCC1`, the pIC50 is 5.20.

`COc1ccc(CNCCc2cccc(F)c2)c2ccccc12`: the pIC50 is 4.13.

As to `O=C(C[n+]1cc(-c2ccc(Cl)cc2)n2c1CCC2)N1c2ccccc2Sc2ccccc21`, the pIC50 was 4.09.

In the case of `O=C(/C=C/c1ccccc1Cl)c1ccccc(=O)c1O`, the pIC50 was 4.46.

On to `COc1ccc(C(=O)N/N=C/c2sc3ccccc3c2O)cc1`, for which the pIC50 was 4.14.

Regarding `Oc1c(Cl)cc(CN2CCCCC2)c2cccnc12`, the pIC50 was 4.70.

`Cc1occc1C(=O)N/N=C/c1cccs1`: the pIC50 was 4.16.

Take `Nc1cccc2nc3ccccc3cc12`: the pIC50 was 4.45.

Take `CC[C@H]1OC(=O)[C@H](C)[C@@H](O[C@H]2C[C@@](C)(OC)[C@@H](O)[C@H](C)O2)[C@H](C)[C@@H](O[C@@H]2O[C@H](C)C[C@H](N(C)C)[C@H]2O)[C@](C)(OC)C[C@@H](C)C(=O)[C@H](C)[C@@H](O)[C@]1(C)O`: the pIC50 is 4.28.

Consider `Cc1c(CCOC(=O)C2C3CC4CC(C3)CC2C4)sc[n+]1CC(=O)c1ccc(Br)cc1` (configuration not stated), for which the pIC50 was 4.46.

For the compound `COc1ccc2c(c1OC)C(=O)N(c1ccc(C)cc1)C2=O`, the pIC50 is 3.85.

Regarding `CCC(C)NC(=O)c1cn(CC)c2cc(N3CCN(C)CC3)c(F)cc2c1=O` (configuration not stated), the pIC50 is 4.68.

For the compound `COc1c2ccccc2nc2ccccc12`, the pIC50 is 4.59.

As to `OC(CNCCc1ccccc1)COc1ccc(OCC(O)CNCCc2ccccc2)cc1` (configuration not stated), the pIC50 is 4.45.

In the case of `Cc1cc(C)n(/N=C/c2cc(Cl)cc(Cl)c2O)c(=O)c1`, the pIC50 is 3.86.

`COCCCNC(=S)NNC(=O)c1ccccn1`: the pIC50 is 4.43.

Turning to `CCn1cc(C(=O)O)c(=O)c2cc(F)c(N3CCN(C(=S)NC(=O)c4ccccc4F)CC3)cc21`, the pIC50 was 4.26.

On to `O=C(C[n+]1cccc(CNC(=O)c2ccc(OC(F)F)cc2)c1)Nc1ccc(SC(F)F)cc1`, for which the pIC50 was 4.08.

Regarding `c1ccc(Nc2nc(NCc3ccco3)c3ccccc3n2)cc1`, the pIC50 is 5.22.

`CN1CCN(C2Cc3cc(F)ccc3Sc3ccc(Cl)cc32)CC1` (configuration not stated): the pIC50 was 4.21.

`COc1cc(CNC2CCCC2)cc(Cl)c1OCc1ccccc1Cl`: the pIC50 is 4.15.

`c1ccc(CN2CCN(c3nc(NCc4ccco4)c4ccccc4n3)CC2)cc1`: the pIC50 is 4.42.

For `O=C(CCc1ccccc1)NNC(=S)NC(=O)c1ccccc1`, the pIC50 was 3.93.

In the case of `Cc1ccc(Nc2cc(C)c3c(O)cccc3n2)cc1C`, the pIC50 was 5.18.

As for `O=C(Nc1ccc(Cl)cc1)Nc1ccc2c(c1)N1CCN=C1S2`, the pIC50 is 4.16.

On to `OC(CNCCc1ccc(Cl)cc1)COc1cc(Cl)ccc1Cl` (configuration not stated), for which the pIC50 is 4.17.

On to `CCN1CCCC1CNC(=O)C1CCN(Cc2nc(-c3cccc(Br)c3)oc2C)CC1` (configuration not stated), for which the pIC50 was 3.90.

Regarding `Cc1cc(Cl)c(OCCCNCc2ccccc2)c(Br)c1`, the pIC50 was 4.16.

Take `O=C(Nc1cccc(N=Cc2cc(Cl)cc(Br)c2O)c1)c1ccco1`: the pIC50 was 4.01.

For `O=C(N/N=C/c1ccccn1)c1ccc(Br)o1`, the pIC50 was 4.22.

As for `Oc1c(CN2CCN(c3ccccn3)CC2)cc(Cl)c2cccnc12`, the pIC50 was 4.53.

As to `Clc1ccc(OCCCN2CCCC2)cc1Cl`, the pIC50 was 4.03.

On to `Cc1ccc(Cn2c(=N)n(CC(O)COc3ccccc3)c3ccccc32)cc1` (configuration not stated), for which the pIC50 was 4.28.

With `O=C1C=CC(=O)N1CCCCCCN1C(=O)C=CC1=O`, the pIC50 is 4.02.

Turning to `COc1ccc(Nc2c3ccccc3nc3ccccc23)cc1`, the pIC50 was 4.45.

For the compound `NC1=NC[C@H](c2ccccc2)N1CCCCC1CCCCC1`, the negative-log IC50 (pIC50) is 4.46.

For the compound `NC1=NC[C@H](Cc2ccc(O)cc2)N1CCCCC1CCCCC1`, the pIC50 was 4.75.

Turning to `Oc1c(Br)cc(Br)cc1C=Nc1cccc2ncccc12`, the pIC50 is 4.43.

Turning to `Cc1ccc(C)c(NC(=O)c2ccccc2O)c1`, the pIC50 is 4.12.

As to `C/C(=N\NC(=O)c1cccc(Br)c1)c1ccccn1`, the pIC50 is 4.44.

With `Clc1ccc(-c2cc(C3CCNCC3)[nH]n2)c(Cl)c1`, the pIC50 was 4.26.

For `CCCCCNC(=O)c1cn(CC)c2cc(N3CCN(C)CC3)c(F)cc2c1=O`, the pIC50 was 4.01.

As to `c1ccc(Nc2ccnc(Nc3ccccc3)n2)cc1`, the pIC50 is 4.47.

For `CCn1cc(C(=O)O)c(=O)c2cc(F)c(N3CCN(C(=S)NC(=O)c4cccc(F)c4)CC3)cc21`, the pIC50 is 4.73.

For `CCCCOc1ccc(Br)cc1CSC(=N)N`, the pIC50 is 4.46.

`CCc1ccc(NC(=O)Nc2ccncc2)cc1`: the pIC50 is 4.15.

Consider `Oc1c(CN2CCCCC2)cc(Br)c2cccnc12`, for which the pIC50 is 4.75.

For `O=C(CNC(=O)c1cccc(F)c1)N/N=C/c1ccc([N+](=O)[O-])s1`, the pIC50 was 4.70.

For the compound `C/C(=N/Nc1ccnc2cc(Cl)ccc12)c1ccc(N)cc1`, the negative logarithm of the IC50 (pIC50) was 4.52.

Consider `CCn1cc(C(=O)O)c(=O)c2cc(F)c(N3CCN(C)CC3)cc21`, for which the negative logarithm of the IC50 (pIC50) is 6.37.

As for `CC(NCC(O)COCCC12CC3CC(CC(C3)C1)C2)c1ccccc1` (configuration not stated), the pIC50 was 4.50.

On to `CCOc1cc(CNC(C)(C)CO)cc(Br)c1OCc1ccc(Cl)cc1Cl`, for which the pIC50 is 4.36.

In the case of `C#CCOCCOCCOCCNc1nc(N2CCN(C(=O)C(Cc3ccc(O)cc3)n3cc(C(N)CC(C)C)nn3)CC2)nc(N2CCN(C(=O)C(Cc3cc4ccccc4[nH]3)n3cc(C(N)Cc4ccc(O)cc4)nn3)CC2)n1` (configuration not stated), the pIC50 is 3.89.

Regarding `CCCCOc1ccc(C(=O)NNC(=S)NC(=O)CC)cc1`, the pIC50 was 4.43.

For the compound `CNCC[C@H](Oc1cccc2ccccc12)c1cccs1`, the pIC50 is 4.09.

Consider `CC(=O)OC1=C(O)C(=O)c2ccccc2C1=O`, for which the pIC50 was 3.85.

Regarding `COc1ccccc1Nc1nc(NCc2ccco2)c2ccccc2n1`, the negative logarithm of the IC50 (pIC50) was 4.71.

Consider `Fc1ccccc1CCNCc1ccccc1`, for which the pIC50 is 4.47.

For the compound `O=C(N/N=C/c1ccc([N+](=O)[O-])o1)C(O)c1ccccc1` (configuration not stated), the pIC50 is 4.45.

For the compound `Cc1ccc(-n2c(C)cc(C3N=C(N)Nc4nc5ccccc5n43)c2C)c(C)c1` (configuration not stated), the pIC50 was 4.68.

With `COC(=O)N/N=C/c1c[n+]([O-])c2ccccc2[n+]1[O-]`, the pIC50 is 4.31.

In the case of `c1ccc2c(c1)C(=NC1CCCCC1)NC2=NC1CCCCC1`, the pIC50 was 4.18.

With `Cc1ccc(Nc2nc(N)c3ccccc3n2)cc1Cl`, the pIC50 was 4.68.

In the case of `CC(Nc1nc(N2CCCC2)nc2ccccc12)c1ccccc1` (configuration not stated), the pIC50 is 4.16.

`CN(C)CCNC(=O)/C(=C/c1ccc(-c2ccc(Cl)cc2)o1)NC(=O)c1ccccc1`: the pIC50 is 4.11.

Consider `CCCCCCCCCCC[N+](C)(C)CC/C=C1/c2ccccc2Sc2ccc(Cl)cc21`, for which the pIC50 was 4.41.

Consider `Cc1cc([N+](=O)[O-])cc(/C=N\NC(=O)C2COc3ccccc3O2)c1O` (configuration not stated), for which the pIC50 was 4.29.
